Measured values published in US12409174B2, “Combination of zibotentan and dapagliflozin for the treatment of endothelin related diseases” (priority 2020, dated 2025).
Values belong to the molecule of their own block, whether it stands above or below them.

Key:
[1] = tested on: male Wistar rats fed a 4% salt diet; assay: Effect on urinary volume, glucose, Na, K, urea and creatinine in the urine, Experiment 2; format: in vivo; conditions: Exp 2; for Urine Creatinine / Urine K / Urine Na / Urine Urea / Urine volume: 24 hr urine between third and fourth dose; for Urine glucose excretion: FIG. 8A
Method: (§1) In the second experiment (Experiment 2), the effect of zibotentan and dapagliflozin (alone or in combination) on Hct concentration and Hb was determined. Seventy-two animals were randomized on BW and Hct concentration, 2 to 3 days prior to administration of study drugs into the following groups; 1) Vehicle, 2) Zibotentan (30 mg/kg), 3) Zibotentan (100 mg/kg), 4) Dapagliflozin (3 mg/kg), 5) Zibotentan (30 mg/kg)+Dapagliflozin (3 mg/kg) and 6) Zibotentan (100 mg/kg)+Dapagliflozin (3 mg/kg). For practical reasons, the study was conducted in two consecutive slots with 36 animals (6/group) in each slot. Compounds were administered p.o. QD for seven days. Blood samples for bioanalysis were collected at 4 and 24 hr after the first dose and 24 hr after the final dose for Hct concentration and Hb analysis on day three and seven as described for exp.1. Twenty-four hour urine was collected between the third and fourth dose. 24 hr food and water intake was measured between day 2-3 and between day 6-7. With two animals per cage, food intake and water intake per animal in a cage was assessed by dividing the food intake and water intake of a cage by two.
Plasma and Urine Albumin, Creatinine, Glucose, Urea, Potassium and Sodium levels were analyzed using an ABX Pentra 400 instrument (Horiba Medical, Irvine, California, USA) according to the manufacturers protocol.
(§2) The data for each feature measured was checked for a normal distribution and where appropriate a log transformation was applied to data with a non-normal distribution using R. Since the data were grouped by one factor Zibotentin doses or combined therapy, a one-way ANOVA was used to analyse traits measured at a single time point (GraphPad version 8 or R statistics package emmeans) and a linear mixed effects model (nlme package) in R was used to analyse multiple measures data for body weight. The differences between groups were tested using either a Dunnett test (emmeans package in R or GraphPad v8) when comparing treated groups to the vehicle group or a Tukey comparison (emmeans package in R or Graphpad v8.) for specific pairwise comparisons of treated groups. All model assumptions were checked using the model diagnostic plots in R statistics. Results are expressed as the Mean±standard error of the Mean (SEM) for pharmacodynamic parameters and Mean±standard deviation (SD) for compound concentration in blood and urine. Significance was set at p<0.05.

[2] = Amount of dapagliflozin and zibotentan excreted in urine, Experiment 2; conditions: Exp 2, urine collected between days 3 and 4
Method: as §1

[3] = Zibotentan and dapagliflozin blood concentrations, Experiment 2; conditions: male, Wistar, rat, Exp 2; for concentration at 4 h: 4 hr post first dose
Method: as §1
The blood and urine concentrations of zibotentan and dapagliflozin were determined by a bioanalytical method using liquid chromatography with mass spectrometric detection (LC-MS/MS).
Whole blood samples for bioanalysis of dapagliflozin and zibotentan followed the same procedure. A volume of 20 μL whole blood was precipitated with 150 μL acetonitrile containing internal standard and quickly vortexed, followed by a 20 min centrifugation at 3220 g and 4° C. The supernatant was transferred to a fresh deep well plate and diluted 1:1 with water prior to LC-MS analysis. Matrix matched calibration samples and blanks were treated in the same way as study samples. Zibotentan samples were further diluted twice and three times at a 1:10 ratio with 33% acetonitrile, to ensure all diluted samples were detectible within the calibration range.
Sample concentrations were determined against matrix-spiked calibration standards over a range of 0.010 μM-10.0 μM for dapagliflozin and 0.75 μM-376 μM for zibotentan, applying weighted linear regression (1/X^2) using Waters TargetLynx software version XS V4.2 SCN986.
Samples were analyzed by using reversed-phase high-pressure liquid chromatography with rapid gradient elution. Compounds were detected with Waters Xevo TQ-S triple quadrupole mass spectrometer (Waters Corporation, Milford, MA, USA). The chromatographic separation was performed by an ACQUITY BEH C18 1.8 μM, 2.1×50 mm column at a temperature of 40° C. Mobile phase A was 2% acetonitrile and 0.2% formic acid in water (A), and mobile phase B was 0.2% formic acid in acetonitrile (B). Separation was achieved using the following elution gradient: 0 min to 1.5 min, 4% B ramping up to 95% B; 1.5 min to 2.3 min, kept at 95% B; 2.3 min to 2.4 min, 95% B to 4% B and kept at 4% B until 2.7 min. The flow rate was 0.7 mL/min.
Samples were analyzed by reversed-phase high-pressure liquid chromatography with rapid gradient elution. Compounds were detected with Waters Xevo TQ-S triple quadrupole mass spectrometer (Waters Corporation, Milford, MA, USA). Mobile phase A was 1M ammonium acetate/acetonitrile/water (0.1/2/97.5, v/v/v), and mobile phase B was 1M ammonium acetate/acetonitrile (0.1/99.5, v/v). Separation was performed by an ACQUITY BEH C18 1.8 μM, 2.1×50 mm column from Waters using the following gradient: 0 min to 2.5 min, 4% B ramping to 60% B; 2.5 min to 2.9 min, 60% B to 95% B; 2.9 min to 3.4 min kept at 95% B, and from 3.4 to 3.5 min mobile phase B was returned to 4% B and kept at 4% B until 4 min. The flow rate was 0.6 mL/min and column temperature was 40° C.

[4] = tested on: male Wistar rats fed a 4% salt diet; assay: Effect of zibotentan and dapagliflozin on kidney and heart weight, Experiment 2; format: in vivo; conditions: Exp 2
Method: as §1, §2

[5] = treatment of prostate cancer; development stopped in 2011; cited from earlier work

Amount of dapagliflozin excreted in urine ([2]; Dapa 3 mg/kg p.o. QD): 0.198 µmol | concentration at 24 h ([3]; whole blood, oral, 3 mg/kg, Dapagliflozin blood concentration, Dapa 3 mg/kg p.o. QD 7 days, 24 hr post last dose): 0.048 µM | concentration at 4 h ([3]; whole blood, oral, 3 mg/kg, Dapagliflozin blood concentration, Dapa 3 mg/kg p.o. QD): 1.94 µM | concentration at 24 h ([3]; whole blood, oral, 3 mg/kg, Dapagliflozin blood concentration, Dapa 3 mg/kg p.o. QD, 24 hr post first dose): 0.086 µM | Heart weight ([4]; Dapa 3 mg/kg p.o. QD 7 days): 0.85 g | Heart/tibia length ([4]; Dapa 3 mg/kg p.o. QD 7 days): 22.08 mg/mm | Kidney weight ([4]; Dapa 3 mg/kg p.o. QD 7 days): 2.01 g | Kidney/tibia length ([4]; Dapa 3 mg/kg p.o. QD 7 days): 51.96 mg/mm
Compound: CCOc1ccc(Cc2cc([C@@H]3O[C@H](CO)[C@@H](O)[C@H](O)[C@H]3O)ccc2Cl)cc1 [Dapa, (1S)-1,5-anhydro-1-{4-chloro-3-[(4-ethoxyphenyl)methyl]phenyl}-D-glucitol]
24-hour urine volume and urea excretion compared to vehicle [1]: increased | Urine Na, K and creatinine compared to vehicle [1]: No change | Urine Creatinine ([1]; Dapa 3 mg/kg p.o. QD): 76.42 µmol | Urine K ([1]; Dapa 3 mg/kg p.o. QD): 1.40 mmol | Urine Na ([1]; Dapa 3 mg/kg p.o. QD): 12.60 mmol | Urine Urea ([1]; Dapa 3 mg/kg p.o. QD): 7.43 mmol | Urine volume ([1]; Dapa 3 mg/kg p.o. QD): 43.13 mL | Urine glucose excretion [1]: significantly increased

Compound: COc1nc(C)cnc1NS(=O)(=O)c1cccnc1-c1ccc(-c2nnco2)cc1 [Zibo, N-(3-methoxy-5-methylpyrazin-2-yl)-2-[4-(1,3,4-oxadiazol-2-yl)phenyl]pyridine-3-sulfonamide]
24-hour urine volume and urea excretion compared to vehicle [1]: No difference | Urine Na, K and creatinine compared to vehicle [1]: No change | Urine glucose excretion [1]: no effect | Urine Creatinine ([1]; Zibo 30 mg/kg p.o. QD): 71.33 µmol | Urine K ([1]; Zibo 30 mg/kg p.o. QD): 1.27 mmol | Urine Na ([1]; Zibo 30 mg/kg p.o. QD): 10.67 mmol | Urine Urea ([1]; Zibo 30 mg/kg p.o. QD): 4.61 mmol | Urine volume ([1]; Zibo 30 mg/kg p.o. QD): 19.08 mL | Urine Creatinine ([1]; Zibo 100 mg/kg p.o. QD): 68.18 µmol | Urine K ([1]; Zibo 100 mg/kg p.o. QD): 1.16 mmol | Urine Na ([1]; Zibo 100 mg/kg p.o. QD): 10.03 mmol | Urine Urea ([1]; Zibo 100 mg/kg p.o. QD): 4.11 mmol | Urine volume ([1]; Zibo 100 mg/kg p.o. QD): 19.08 mL | Amount of zibotentan excreted in urine ([2]; Zibo 30 mg/kg p.o. QD): 2.17 µmol | Amount of zibotentan excreted in urine ([2]; Zibo 100 mg/kg p.o. QD): 3.21 µmol | concentration at 24 h ([3]; in vivo, 30 mg/kg, Zibotentan blood concentration, Zibo 30 mg/kg p.o. QD 7 days, 24 hr post last dose): 22.9 µM | concentration at 4 h ([3]; in vivo, 30 mg/kg, Zibotentan blood concentration, Zibo 30 mg/kg p.o. QD): 61.1 µM | concentration at 24 h ([3]; in vivo, 30 mg/kg, Zibotentan blood concentration, Zibo 30 mg/kg p.o. QD, 24 hr post first dose): 7.8 µM | concentration at 24 h ([3]; in vivo, 100 mg/kg, Zibotentan blood concentration, Zibo 100 mg/kg p.o. QD 7 days, 24 hr post last dose): 136 µM | concentration at 4 h ([3]; in vivo, 100 mg/kg, Zibotentan blood concentration, Zibo 100 mg/kg p.o. QD): 161 µM | concentration at 24 h ([3]; in vivo, 100 mg/kg, Zibotentan blood concentration, Zibo 100 mg/kg p.o. QD, 24 hr post first dose): 63.9 µM | Heart weight ([4]; Zibo 30 mg/kg p.o. QD 7 days): 0.96 g | Heart/tibia length ([4]; Zibo 30 mg/kg p.o. QD 7 days): 24.75 mg/mm | Kidney weight ([4]; Zibo 30 mg/kg p.o. QD 7 days): 2.05 g | Kidney/tibia length ([4]; Zibo 30 mg/kg p.o. QD 7 days): 52.49 mg/mm | Heart weight compared to vehicle, with or without normalizing to tibia length ([4]; Zibo 30 mg/kg, seven days): increased | Heart weight ([4]; Zibo 100 mg/kg p.o. QD 7 days): 0.93 g | Heart/tibia length ([4]; Zibo 100 mg/kg p.o. QD 7 days): 23.82 mg/mm | Kidney weight ([4]; Zibo 100 mg/kg p.o. QD 7 days): 1.90 g | Kidney/tibia length ([4]; Zibo 100 mg/kg p.o. QD 7 days): 48.20 mg/mm | Efficacy in Phase 3 [5]: insufficient efficacy
